Data: patent EP4763845A1, “CYANO AROMATIC RING DERIVATIVE AND PHARMACEUTICAL USE THEREOF” (Haisco Pharmaceutical Group Co., Ltd., priority 2023, dated 2025)

Experiments:
[1] = target: T1, hERG potassium channel (Homo sapiens, UniProt Q12809); assay: hERG potassium ion channel test (manual patch-clamp, CHO cells); assay type: cell-based; conditions: chinese hamster; inhibitory activity against hERG potassium channel current, CHO cells, whole cell patch-clamp; read-out: IC50
T1 construct: expressed in transfected cells; host or cells: CHO cells stably expressing hERG
T1 sequence (Q12809 whole entry): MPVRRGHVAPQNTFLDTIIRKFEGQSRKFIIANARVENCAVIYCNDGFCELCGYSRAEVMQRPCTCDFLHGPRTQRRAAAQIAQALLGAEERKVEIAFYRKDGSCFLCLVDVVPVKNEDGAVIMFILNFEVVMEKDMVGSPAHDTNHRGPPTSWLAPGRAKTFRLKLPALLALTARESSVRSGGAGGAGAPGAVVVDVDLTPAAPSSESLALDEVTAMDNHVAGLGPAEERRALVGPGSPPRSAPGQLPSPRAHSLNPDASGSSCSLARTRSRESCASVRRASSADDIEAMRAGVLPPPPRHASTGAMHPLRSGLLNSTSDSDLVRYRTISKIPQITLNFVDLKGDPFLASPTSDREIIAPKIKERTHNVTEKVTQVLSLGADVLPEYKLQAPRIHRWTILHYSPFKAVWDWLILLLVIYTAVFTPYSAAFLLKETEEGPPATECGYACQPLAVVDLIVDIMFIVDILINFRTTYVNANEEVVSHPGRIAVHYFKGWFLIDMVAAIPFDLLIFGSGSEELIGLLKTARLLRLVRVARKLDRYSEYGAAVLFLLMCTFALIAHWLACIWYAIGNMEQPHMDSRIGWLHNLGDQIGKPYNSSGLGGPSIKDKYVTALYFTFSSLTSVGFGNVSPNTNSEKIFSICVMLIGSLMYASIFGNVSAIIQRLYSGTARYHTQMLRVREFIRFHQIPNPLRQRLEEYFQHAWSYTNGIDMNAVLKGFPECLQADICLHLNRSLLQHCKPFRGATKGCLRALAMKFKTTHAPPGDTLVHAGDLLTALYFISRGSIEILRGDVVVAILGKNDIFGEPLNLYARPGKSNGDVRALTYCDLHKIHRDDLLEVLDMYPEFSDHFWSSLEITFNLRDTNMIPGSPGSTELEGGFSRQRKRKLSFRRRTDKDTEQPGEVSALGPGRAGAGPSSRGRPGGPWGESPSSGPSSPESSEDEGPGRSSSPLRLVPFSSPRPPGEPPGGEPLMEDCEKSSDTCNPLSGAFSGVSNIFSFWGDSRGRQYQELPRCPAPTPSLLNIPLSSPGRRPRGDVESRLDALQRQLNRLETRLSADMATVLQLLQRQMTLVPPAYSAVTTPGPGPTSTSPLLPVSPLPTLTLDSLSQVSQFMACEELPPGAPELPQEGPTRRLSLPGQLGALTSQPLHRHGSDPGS

[2] = Pharmacokinetic test in rats; assay type: in vivo, SD rats; conditions: i.g. (5 mg/kg), vehicle 5% DMSO+5% Solutol+10% PEG400+80% (20% SBE-β-CD)
Protocol: Experimental objective: In this experiment, a single dose of the test compound was administered to SD rats via intravenous administration and intragastric gavage, and the concentration of the test compound in plasma of the rats was measured to evaluate the pharmacokinetic profile of the test compound in the rats.
Experimental animals: Male SD rats, 200-220 g, 6 rats/compound, purchased from Chengdu Ddossy Experimental Animals Co., Ltd.
Experimental method: On the day of the experiment, 6 SD rats were randomly grouped according to their body weights. The animals were fasted with water available for 12 to 14 h one day before the administration, and were fed 4 h after the administration. Table 3 Administration information of pharmacokinetic test in rats
Sampling: Before and after the administration, 0.1 mL of blood was taken from the orbits under isoflurane anaesthesia, and placed in an EDTAK2 centrifuge tube. Centrifugation was carried out at 5000 rpm at 4°C for 10 min, and the plasma was collected.
The plasma collection time points for IV&PO groups were 0, 5 min, 15 min, 30 min, 1 h, 2 h, 4 h, 7 h, 24 h, and 48 h.
Before analysis and detection, all samples were stored at -60°C. The samples were analysed quantitatively by LC-MS/MS. Table 4 Pharmacokinetic parameters of compounds of the present invention in plasma of rats

CC1(C)[C@H](NC(=O)c2ccc(N3CCC(CN4CCN5c6cc(F)c(C7CCC(=O)NC7=O)cc6CC[C@H]5C4)CC3)cc2)C(C)(C)[C@H]1Oc1ccc(C#N)c2ncccc12 (stereo partly drawn) [Compound 31]
IC50 [1]: > 40 µM
F [2]: 49.1+12%
AUC(0-t) ([2]; rat, plasma, po): 5430 ± 1360 ng·h/mL
